Assay results as given in patent publication US9168212B2, “Composition for eyelash growth” (SK CHEMICALS CO., LTD., priority 2011, dated 2015).

Assays:
eyelashes [1] = assay: Short-term in vivo evaluation related to eyelash growth (one week administration); design: species or system mouse
Procedure: (§1) Analysis was conducted immediately after the eyelashes were collected. Using a high-performance microscope with computer-assisted eyelid thickness focus fixation and an image analysis software capable of measuring the number, thickness and length of eyelashes, the eyelashes were measured for the exact number, thickness and length thereof. Numeric data obtained by this method was averaged, and comparative analysis was conducted using prism statistical software.

eyelashes [2] = assay: In vivo evaluation related to eyelash growth (two weeks local administration); design: species or system mouse
Procedure: as §1

[3] = female mouse, 2 μl applied to the eyelashes once a day for one week, n is 6 for each group
[4] = female mouse, 2 μl applied to the eyelashes once a day for two weeks, n is 8 for each group

CCNC(=O)CCC/C=C\C[C@@H]1[C@@H](/C=C/[C@@H](O)CCc2ccccc2)[C@H](O)C[C@@H]1O [bimatoprost]
number of eyelashes (eyelashes [1]; [3]): 37.8 eyelashes
number of eyelashes having a length of 1000 μm or more (eyelashes [1]; [3]): 12.3 eyelashes
number of eyelashes having a thickness of 15 μm or more (eyelashes [1]; [3]): 8.7 eyelashes
statistical significance of increase in number, thickness and length of eyelashes compared to the control group (eyelashes [1]; one week administration, t-test): statistically significant increase in only one item of eyelash thickness
statistical significance of increase in number, thickness and length of eyelashes compared to the control group (eyelashes [2]; administered for two weeks, t-test): statistically significant increase in only two items of number and thickness of eyelashes
number of eyelashes (eyelashes [2]; [4]): 39.0 eyelashes
number of eyelashes having a length of 1000 μm or more (eyelashes [2]; [4]): 9.5 eyelashes
number of eyelashes having a thickness of 15 μm or more (eyelashes [2]; [4]): 9.5 eyelashes
